The source made the active and inactive calls. No cut-off for these calls is given here.
Columns and labels:
CWR22R = assay: Antiproliferative activity against human 22Rv1 cells assessed as reduction in cell viability incubated for 48 hrs by MTT assay; assay type: functional, cell-based; details: 22Rv1, 48 h
PC-3 = assay: Antiproliferative activity against human PC-3 cells assessed as reduction in cell viability incubated for 48 hrs by MTT assay; assay type: functional, cell-based; details: PC-3, 48 h
A549 = assay: Antiproliferative activity against human A549 cells assessed as reduction in cell viability incubated for 48 hrs by MTT assay; assay type: functional, cell-based; details: A549, 48 h
HepG2 = assay: Antiproliferative activity against human HepG2 cells assessed as reduction in cell viability incubated for 48 hrs by MTT assay; assay type: functional, cell-based; details: HepG2, 48 h
[1] = Cytotoxicity against human GES1 cells assessed as reduction in cell viability incubated for 48 hrs by MTT assay; assay type: toxicity, cell-based
HGC-27 [2] = assay: Antiproliferative activity against human HGC-27 cells assessed as reduction in cell viability incubated for 12 to 48 hrs by MTT assay; assay type: functional, cell-based; details: dose 15-30 nM, time 12-48 hrs, DDE = dose-dependent effect
MGC-803 [3] = assay: Inhibition of ERK signalling pathway in human MGC-803 cells assessed as downregulation of c-Raf phosphorylation at 5 to 15 nM incubated for 48 hrs; assay type: cell-based; details: dose 5-15 nM
MGC-803 [4] = assay: Inhibition of ERK signalling pathway in human MGC-803 cells assessed as downregulation of ERK1/2 phosphorylation at 5 to 15 nM incubated for 48 hrs; assay type: cell-based; details: dose 5-15 nM
HGC-27 [5] = assay: Inhibition of ERK signalling pathway in human HGC-27 cells assessed as downregulation of MEK1/2 phosphorylation at 10 to 30 nM incubated for 48 hrs; assay type: cell-based; details: dose 10-30 nM
MGC-803 [6] = assay: Inhibition of ERK signalling pathway in human MGC-803 cells assessed as reduction in downstream substrate p90RSK phosphorylation at 5 to 15 nM incubated for 48 hrs; assay type: cell-based; details: dose 5-15 nM
HGC-27 [7] = assay: Inhibition of p38 signalling pathway in human HGC-27 cells assessed as reduction in p38 phosphorylation at 10 to 30 nM incubated for 48 hrs; assay type: cell-based; details: dose 10-30 nM
HGC-27 [8] = assay: Inhibition of p38 signalling pathway in human HGC-27 cells assessed as reduction in downstream substrate HSP-27 phosphorylation at 10 to 30 nM incubated for 48 hrs; assay type: cell-based; details: dose 10-30 nM
MGC-803 [9] = assay: Downregulation of FoxO3a expression in human MGC-803 cells incubated for 48 hrs; assay type: functional, cell-based; details: dose 5-15 nM, DDE = dose-dependent effect
[10] = Induction of mitochondria mediated intrinsic apoptosis in human MGC-803 cells assessed as late apoptotic cells at 5 nM measured after 48 hrs by flow cytometry analysis (Rvb= […]); assay type: functional
[11] = Induction of mitochondria mediated intrinsic apoptosis in human MGC-803 cells assessed as late apoptotic cells at 15 nM measured after 48 hrs by flow cytometry analysis (Rvb= 98.2%); assay type: functional
[12] = Induction of mitochondria mediated intrinsic apoptosis in human HGC-27 cells assessed as early apoptotic cells at 10 nM measured after 48 hrs by flow cytometry analysis (Rvb= 6.4%); assay type: functional
[13] = Induction of mitochondria mediated intrinsic apoptosis in human HGC-27 cells assessed as late apoptotic cells at 10 nM measured after 48 hrs by flow cytometry analysis (Rvb= 93.6%); assay type: functional
HGC-27 [14] = assay: Induction of apoptosis in human HGC-27 cells assessed as cell rounding at 10 to 30 nM incubated for 48 hrs by bright field imaging analysis; assay type: functional, cell-based; details: dose 10-30 nM
MGC-803 [15] = assay: Induction of apoptosis in human MGC-803 cells assessed as decrease in cell density at 5 to 15 nM incubated for 48 hrs by bright field imaging analysis; assay type: functional, cell-based; details: dose 5-15 nM
HGC-27 [16] = assay: Induction of apoptosis in human HGC-27 cells assessed as nuclear concentration at 10 to 30 nM incubated for 48 hrs by DAPI staining based analysis; assay type: functional, cell-based; details: dose 10-30 nM
MGC-803 [17] = assay: Induction of apoptosis in human MGC-803 cells assessed as nuclear fragmentation at 5 to 15 nM incubated for 48 hrs by DAPI staining based analysis; assay type: functional, cell-based; details: dose 5-15 nM
MGC-803 [18] = assay: Induction of apoptosis in human MGC-803 cells assessed as increase in dead cells at 5 to 15 nM incubated for 48 hrs by calcein-AM dye/propidium iodide staining based analysis; assay type: functional, cell-based; details: dose 5-15 nM
HGC-27 [19] = assay: Induction of apoptosis in human HGC-27 cells assessed as decrease in cIAP-1 level; assay type: functional, cell-based; details: dose 10-30 nM, DDE = dose-dependent effect
MGC-803 [20] = assay: Induction of apoptosis in human MGC-803 cells assessed as increase in cleavage caspase 7 level; assay type: functional, cell-based; details: dose 5-15 nM, DDE = dose-dependent effect
HGC-27 [21] = assay: Induction of apoptosis in human HGC-27 cells assessed as increase in cleavage substrate PARP level; assay type: functional, cell-based; details: dose 10-30 nM, DDE = dose-dependent effect
MGC-803 [22] = assay: Inhibition of colony formation in human MGC-803 cells incubated for 7 days by crystal violet staining based analysis; assay type: functional, cell-based; details: dose 2-10 nM, time 7.0 day, DDE = dose-dependent effect
MGC-803 [23] = assay: Downregulation of cyclin B1 expression in human MGC-803 cells at 5 to 15 nM incubated for 48 hrs; assay type: functional, cell-based; details: dose 5-15 nM
MGC-803 [24] = assay: Upregulation of phosphorylated Histone H3 expression in human MGC-803 cells at 5 to 15 nM incubated for 48 hrs; assay type: functional, cell-based; details: dose 5-15 nM
MGC-803 [25] = assay: Downregulation of vimentin expression in human MGC-803 cells incubated for 48 hrs; assay type: functional, cell-based; details: dose 5-15 nM, DDE = dose-dependent effect
MGC-803 [26] = assay: Antitumor activity against human MGC-803 cells xenografted BALB/c nude mouse assessed as inhibition of tumor volume at 15 to 30 mg/kg, ip administered once daily for 21 days and measured every 2 days; assay type: functional, organism-based; details: dose 15-30 mg/kg, time 21.0 day
MGC-803 [27] = assay: Antitumor activity against human MGC-803 cells xenografted BALB/c nude mouse assessed as tumor growth inhibition at 30 mg/kg, ip administered once daily for 21 days; assay type: functional; details: MGC-803, 504 h, time 21 day, read-out: TGI
[28] = Toxicity in BALB/c nude mouse xenografted with human MGC-803 cells assessed as effect on body weight at 15 to 30 mg/kg, ip administered once daily for 21 days; assay type: organism-based; details: in vivo, 504 h, dose 15-30 mg/kg, time 21 day
[29] = Toxicity in BALB/c nude mouse xenografted with human MGC-803 cells assessed as pathological changes in heart at 15 to 30 mg/kg, ip administered once daily for 21 days by Hematoxyin-eosin staining based analysis; assay type: organism-based; details: in vivo, 504 h, dose 15-30 mg/kg, time 21 day
[30] = Toxicity in BALB/c nude mouse xenografted with human MGC-803 cells assessed as pathological changes in lung at 15 to 30 mg/kg, ip administered once daily for 21 days by Hematoxyin-eosin staining based analysis; assay type: organism-based; details: in vivo, 504 h, dose 15-30 mg/kg, time 21 day
Mus musculus [31] = assay: Downregulation of p38 phosphorylation in tumor tissue of BALB/c nude mouse xenografted with human MGC-803 cells at 15 to 30 mg/kg, ip administered once daily for 21 days by Western blotting analysis; assay type: functional, organism-based; details: dose 15-30 mg/kg, time 21.0 day
Mus musculus [32] = assay: Upregulation of cleaved caspase -3 expression in tumor tissue of BALB/c nude mouse xenografted with human MGC-803 cells at 15 to 30 mg/kg, ip administered once daily for 21 days by Western blotting analysis; assay type: functional, organism-based; details: dose 15-30 mg/kg, time 21.0 day
Mus musculus [33] = assay: Downregulation of Ki67 expression in tumor tissue of BALB/c nude mouse xenografted with human MGC-803 cells at 15 to 30 mg/kg, ip administered once daily for 21 days by immunohistochemistry analysis; assay type: functional, organism-based; details: dose 15-30 mg/kg, time 21.0 day

CN(c1ccc2c(ccn2C)c1)c1cc(=O)oc2ccccc12 showed an IC50 (CWR22R) of 558 nM, an IC50 (PC-3) of 34.9 nM and an IC50 (A549) of 59.3 nM. The IC50 (HepG2) was 45.5 nM, the IC50 at 48 h [1] was 3170 nM and the Activity (HGC-27 [2]) was “Dde”. For the same compound, the inhibition (MGC-803 [3]) was “Active”, the inhibition (MGC-803 [4]) was “Active” and the inhibition (HGC-27 [5]) was “Active”. For the same compound, the inhibition (MGC-803 [6]) was “Active”, the inhibition (HGC-27 [7]) was “Active” and the inhibition (HGC-27 [8]) was “Active”. For the same compound, the Activity (MGC-803 [9]) was “Dde”, the Activity [10] was 98.1% and the Activity [11] was 75.2%. The Activity [12] was 8.3%, the Activity [13] was 91.6% and the Activity (HGC-27 [14]) was “Active”. The Activity (MGC-803 [15]) was “Active”, the Activity (HGC-27 [16]) was “Active” and the Activity (MGC-803 [17]) was “Active”. For the same compound, the Activity (MGC-803 [18]) was “Active”, the Activity (HGC-27 [19]) was “Dde” and the Activity (MGC-803 [20]) was “Dde”. The Activity (HGC-27 [21]) was “Dde”, the inhibition (MGC-803 [22]) was “Dde” and the Activity (MGC-803 [23]) was “Active”. The Activity (MGC-803 [24]) was “Active”, the Activity (MGC-803 [25]) was “Dde” and the Activity (MGC-803 [26]) was “Active”. The inhibition in vivo at 30 mg/kg (MGC-803 [27]) was 80%, the Activity [28] was “Non-Toxic” and the Activity [29] was “Non-Toxic”. The Activity [30] was “Non-Toxic”, the Activity (Mus musculus [31]) was “Active” and the Activity (Mus musculus [32]) was “Active”. The Activity (Mus musculus [33]) was “Active”.
